Assay [1] in a line: Growth inhibition of human MCF7 cells at 10 uM after 72 hrs by MTT assay. The assay is classed as functional. Particulars: MCF7, 72 h, read-out: GI.
Assay [2] can be described thus: Growth inhibition of human MCF7 cells at 30 uM after 72 hrs by MTT assay. Particulars: MCF7, 72 h, read-out: GI. The assay is classed as functional.
Assay [3] can be described thus: Growth inhibition of human MCF7 cells after 72 hrs by MTT assay. The assay is classed as functional, cell-based. Particulars: MCF7, 72 h.
The nature of assay [4]: Growth inhibition of human T47D cells at 10 uM after 72 hrs by MTT assay. The assay is classed as functional. The conditions noted are these: read-out: GI.
Assay [5] can be described thus: Growth inhibition of human T47D cells at 30 uM after 72 hrs by MTT assay. The assay is classed as functional. Particulars: read-out: GI.
Assay [6] is described as follows: Growth inhibition of human MDA-MB-231 cells at 10 uM after 72 hrs by MTT assay. The assay is classed as functional. Particulars: MDA-MB-231, 72 h, read-out: GI.
The nature of assay [7]: Growth inhibition of human MDA-MB-231 cells at 30 uM after 72 hrs by MTT assay. The assay is classed as functional. Particulars: MDA-MB-231, 72 h, read-out: GI.
Assay [8] in a line: Growth inhibition of human MDA-MB-231 cells after 72 hrs by MTT assay. The assay is classed as functional, cell-based. Particulars: MDA-MB-231, 72 h.
Assay [9] can be described thus: Growth inhibition of human MDA-MB-361 cells at 10 uM after 72 hrs by MTT assay. The conditions noted are these: MDA-MB-361, 72 h, read-out: GI. The assay is classed as functional.
The nature of assay [10]: Growth inhibition of human MDA-MB-361 cells at 30 uM after 72 hrs by MTT assay. The assay is classed as functional. The conditions noted are these: MDA-MB-361, 72 h, read-out: GI.
The nature of assay [11]: Growth inhibition of human MDA-MB-361 cells after 72 hrs by MTT assay. The assay is classed as functional, cell-based. Particulars: MDA-MB-361, 72 h.
Assay [12] is described as follows: Growth inhibition of human T47D cells after 72 hrs by MTT assay. The assay is classed as functional, cell-based.
Assay [13] addresses T1, Steroid 17-alpha-hydroxylase/17,20 lyase (Rattus norvegicus, UniProt P11715).
T1 sequence (P11715 whole entry): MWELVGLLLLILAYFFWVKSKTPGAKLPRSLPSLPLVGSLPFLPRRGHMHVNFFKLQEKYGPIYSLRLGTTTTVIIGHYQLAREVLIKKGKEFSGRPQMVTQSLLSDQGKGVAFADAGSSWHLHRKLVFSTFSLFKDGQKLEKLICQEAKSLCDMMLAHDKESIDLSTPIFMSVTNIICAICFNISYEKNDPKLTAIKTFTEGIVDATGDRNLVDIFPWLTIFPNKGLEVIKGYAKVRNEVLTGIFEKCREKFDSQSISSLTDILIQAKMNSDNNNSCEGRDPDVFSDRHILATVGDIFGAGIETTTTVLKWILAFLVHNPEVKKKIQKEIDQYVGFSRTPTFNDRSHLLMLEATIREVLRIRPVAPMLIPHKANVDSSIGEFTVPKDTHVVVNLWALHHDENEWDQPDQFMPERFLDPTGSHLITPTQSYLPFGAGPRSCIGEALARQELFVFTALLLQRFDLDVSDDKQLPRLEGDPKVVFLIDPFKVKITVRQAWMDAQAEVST
Put plainly: Inhibition of Wistar rat testicular C17,20-lyase assessed as androst-4-ene-3,17-dione formation using [3H]17-hydroxyprogesterone as substrate in presence of NADPH.

`C[C@]12CC[C@H](O)CC1=CC[C@@H]1[C@@H]2CC[C@]2(C)C(c3nn(-c4ccccc4)cc3CO)=CC[C@@H]12`: the inhibition of growth at 10 µM in [1] worked out at 79.2%; in [4], 74.4%; in assay [6], 85.2%; in assay [9], 90.6%. Further, the inhibition of growth at 30 µM in assay [2] turned out to be 89.8%; in [5], 90.6%; in assay [7], 93.2%; in assay [10], 96.1%. For the same compound, the concentration for half-maximal inhibition (IC50) was found to be 3.4 µM in assay [3], 5.2 µM in assay [8] and 2.1 µM in assay [11].
On to `COc1ccc(-n2cc(C=O)c(C3=CC[C@H]4[C@@H]5CC=C6C[C@@H](O)CC[C@]6(C)[C@H]5CC[C@]34C)n2)cc1`, for which the inhibition of growth at 10 µM in assay [1] came to 92.3%; in assay [4], 92.5%; in assay [6] it was 96.1%; in assay [9] it was 89.6%. Moreover, the inhibition of growth at 30 µM in assay [2] was determined as 98.1%; in assay [5] it was 96.7%; in [7] it was 96.2%; in assay [10], 96.2%. Moreover, the IC50 in assay [3] worked out at 3.8 µM; in [12] it was 3.7 µM; in assay [8], 3.6 µM; in assay [11], 3.3 µM.
Consider `C[C@]12CC[C@H](O)CC1=CC[C@@H]1[C@@H]2CC[C@]2(C)C(c3cccnc3)=CC[C@@H]12` [ABIRATERONE], for which the inhibition of growth at 10 µM in assay [1] is 12.4%; in [4], 32.5%; in assay [6] it was 14.3%; in [9], 32.2%. The inhibition of growth at 30 µM is 74.7% in assay [2], 70.8% in [5], 85% in assay [7] and 61.2% in assay [10]. Moreover, the IC50 in [3] was 19.3 µM; in assay [12], 16.9 µM; in assay [8], 19.2 µM; in [11], 20.4 µM.
On to `C[C@]12CC[C@H](O)CC1=CC[C@@H]1[C@@H]2CC[C@]2(C)C(c3n[nH]cc3C#N)=CC[C@@H]12`, for which the inhibition of growth at 10 µM in [1] is 36.6%; in assay [4] it was 46.8%; in assay [6] it was 23.3%; in assay [9] it was 46.6%. Also, the inhibition of growth at 30 µM was found to be 63.4% in assay [2], 75.7% in assay [5], 88.4% in assay [7] and 80.4% in [10]. Besides, in [13], the IC50 was 0.092 µM.
Regarding `C[C@]12CC[C@H](O)CC1=CC[C@@H]1[C@@H]2CC[C@]2(C)C(c3nn(-c4ccc(C#N)cc4)cc3CO)=CC[C@@H]12`, the inhibition of growth at 10 µM in assay [1] came out at 71.6%; in assay [4] it was 89.6%; in assay [6], 95.9%; in [9] it was 86.5%. Besides, the inhibition of growth at 30 µM in [2] was 88.4%; in [5], 94.5%; in assay [7], 96.4%; in assay [10] it was 91.9%. The half-maximal inhibitory concentration (IC50) came out at 1.4 µM in assay [3], 1.2 µM in assay [12], 1.8 µM in [8] and 1.6 µM in assay [11].
`C[C@]12CC[C@H](O)CC1=CC[C@@H]1[C@@H]2CC[C@]2(C)C(c3ccn[nH]3)=CC[C@@H]12`: the IC50 in assay [13] came out at 0.0077 µM.
Consider `C[C@]12CC[C@H](O)CC1=CC[C@@H]1[C@@H]2CC[C@]2(C)C(c3n[nH]cc3C=O)=CC[C@@H]12`, for which the inhibition of growth at 10 µM in assay [1] was determined as 31.4%; in assay [4], 43.2%; in assay [6], 54.3%; in assay [9], 42.6%. The inhibition of growth at 30 µM worked out at 80.8% in assay [2], 77% in assay [5], 93.7% in assay [7] and 79.7% in assay [10]. Also, the IC50 in assay [13] is 0.066 µM.
As to `C[C@]12CC[C@H](O)CC1=CC[C@@H]1[C@@H]2CC[C@]2(C)C(c3nn(-c4ccc(Cl)cc4)cc3CO)=CC[C@@H]12`, the inhibition of growth at 10 µM in assay [1] was 54.3%; in assay [4], 81%; in [6], 93.2%; in assay [9], 80%. Also, the inhibition of growth at 30 µM in assay [2] stood at 90.9%; in [5], 94.8%; in assay [7] it was 97.8%; in assay [10] it was 93.1%. Further, the 50% inhibitory concentration (IC50) in assay [12] was 5.7 µM; in [8] it was 3.6 µM; in assay [11], 2.5 µM.
Take `C[C@]12CC[C@H](O)CC1=CC[C@@H]1[C@@H]2CC[C@]2(C)C(c3nn(-c4ccc([N+](=O)[O-])cc4)cc3CO)=CC[C@@H]12`: the inhibition of growth at 10 µM in [1] is 65.4%; in [4], 73.2%; in assay [6], 78.1%; in assay [9], 82.2%. Further, the inhibition of growth at 30 µM was 87.6% in assay [2], 84.7% in assay [5], 92.7% in assay [7] and 91.9% in assay [10]. For the same compound, the IC50 in assay [8] was found to be 4.3 µM; in [11] it was 2.7 µM.
Turning to `C[C@]12CC[C@H](O)CC1=CC[C@@H]1[C@@H]2CC[C@]2(C)C(c3nn(-c4ccc(Br)cc4)cc3CO)=CC[C@@H]12`, the inhibition of growth at 10 µM in assay [1] turned out to be 65.9%; in assay [4], 68.2%; in [6], 76.8%; in [9], 83.5%. In addition, the inhibition of growth at 30 µM in assay [2] was determined as 86.9%; in assay [5], 85.9%; in assay [7], 88.2%; in assay [10] it was 91.5%. The IC50 in assay [8] worked out at 4 µM; in assay [11] it was 2 µM.
With `CC(=O)O[C@H]1CC[C@@]2(C)C(=CC[C@@H]3[C@@H]2CC[C@]2(C)C(c4nn(-c5ccccc5)cc4C=O)=CC[C@@H]32)C1`, the inhibition of growth at 10 µM worked out at 57.1% in [1], 31.4% in assay [4], 37.9% in assay [6] and 52.8% in [9]. For the same compound, the inhibition of growth at 30 µM in [2] came out at 86.3%; in assay [5] it was 79.9%; in assay [7] it was 71.5%; in [10], 76.9%.
Turning to `CC(=O)O[C@H]1CC[C@@]2(C)C(=CC[C@@H]3[C@@H]2CC[C@]2(C)C(c4nn(-c5ccc(C)cc5)cc4C=O)=CC[C@@H]32)C1`, the inhibition of growth at 10 µM in [1] is 24.6%; in assay [4], 37.2%; in assay [6] it was less than 20%; in [9], less than 20%. Further, the inhibition of growth at 30 µM amounted to 44.4% in assay [2], 50.8% in assay [5], 27.2% in assay [7] and 34.9% in [10].
On to `C[C@]12CC[C@H](O)CC1=CC[C@@H]1[C@@H]2CC[C@]2(C)C(c3nn(-c4ccccc4)cc3C=O)=CC[C@@H]12`, for which the inhibition of growth at 10 µM was determined as 93.4% in [1], 93.2% in assay [4], 93.5% in assay [6] and 88.6% in [9]. Further, the inhibition of growth at 30 µM in assay [2] amounted to 98.1%; in assay [5] it was 96.9%; in [7] it was 96.3%; in assay [10], 95.8%. Also, the IC50 stood at 3.7 µM in assay [3], 3.9 µM in [12], 5.4 µM in assay [8] and 3.8 µM in assay [11].
Consider `CC(=O)O[C@H]1CC[C@@]2(C)C(=CC[C@@H]3[C@@H]2CC[C@]2(C)C(c4nn(-c5ccc(C#N)cc5)cc4C=O)=CC[C@@H]32)C1`, for which the inhibition of growth at 10 µM in assay [1] turned out to be 62.2%; in assay [4] it was 60.4%; in assay [6], 43%; in assay [9], 58.9%. For the same compound, the inhibition of growth at 30 µM is 85.3% in assay [2], 83.6% in [5], 84.5% in [7] and 80.4% in assay [10].

These data come from ChEMBL document CHEMBL3856198, “Synthesis of novel 17-(4'-formyl)pyrazolylandrosta-5,16-dienes and their derivatives as potent 17α-hydroxylase/C17,20-lyase inhibitors or antiproliferative agents depending on the substitution pattern of the heteroring” (Eur J Med Chem, 2016).
